# What was measured:
# glioblastoma = test system: glioblastoma; set-up: method as in PMID 19269895; conditions: patients with glioblastoma after temozolomide therapy; cited from earlier work
# [1] = Stability of the radiolabeled products in vials; assay type: physicochemical; conditions: for 24 hr
# Description: Ascorbic acid, para-borono-L-phenylalanine (para-BPA), meta-borono-D, L-phenylalanine (meta-BPA), N-bromosuccinimide (NBS), and an injectable solution of 7% sodium hydrogen carbonate (7% NaHCO3) were purchased from Nacalai Tesque (Kyoto, Japan). For the experiments, 1 mg of para-BPA (or meta-BPA) was dissolved in 0.1 mL of 7% NaHCO3. Next, 0.1 mL of the 1% (w/v) para-BPA (or meta-BPA) solution and an aliquot of ^211At aqueous solution (10–20 MBq) were poured into a glass vial, stirred, and mixed with 30 μL of an aqueous solution of 0.4% (w/v) NBS for 30 min at room temperature. Finally, 30 μL of an aqueous solution of 3% (w/v) ascorbic acid was added to the mixture to stop the oxidation reaction, and the mixture was purified using solid-phase extraction. The purified para-^211At-PA or meta-^211At-PA was then analyzed using a high-performance liquid chromatography system (Shimazdu, Kyoto) equipped with a reverse-phase Cosmosil column (5C18 MS2, 150 mm × 4.6 mm; Nacalai Tesque). The products were eluted using a gradient solvent system (0–100% acetonitrile in water) for 20 min and then measured using a gamma-ray detector (GABI star, Elysia-raytest, Germany) and a UV detector at 254 nm.
# [2] = Biodistribution and iodine blocking effect in normal ICR mice; assay type: in vivo, mouse; conditions: for residence time in major organs (meta- versus para-): intravenous
# Description: For the biodistribution study, para- or meta-^211At-PA (0.53 ± 0.04 MBq) was injected into normal male ICR mice (n = 18, 9 weeks old, body weight = 37.7 ± 1.3 g). The mice were sacrificed by euthanasia at 1, 3, and 24 hr post-injection. For the iodine blocking study, normal male ICR mice (n = 6, 9 weeks old, body weight = 37.9 ± 0.9 g) were fed with 2-week iodine-restricted diet. […] The mice were euthanized 3 hr post-administration of para-^211At-PA (0.5 MBq) and dissected.
# The major organs (brain, thyroid gland, salivary gland, heart, lung, esophagus, liver, stomach, small intestine, large intestine, kidney, adrenal gland, pancreas, spleen, and testes) and the blood were collected from each mouse, and the radioactivity and weight of each sample were measured using an AccuFlex γ7000 device (Hitachi, Aloka, Japan). Radioactivity counts were normalized by calibration with a standard solution of ^211At. The residence time (hr) was calculated using the trapezoidal method without decay correction.
# C6 glioma cells = test: In vitro cellular uptake and inhibition assay of ^211At-PA; assay type: cell-based; conditions: Rattus norvegicus, 20 mM BCH added 5 min before para-^211At-PA, compared to baseline, read-out: inhibition of ^211At-PA uptake by addition of BCH
# Description: (§1) The C6 rat glioma cell line was provided by RIKEN BRC (Tsukuba, Japan) and cultured in F-12K medium (Gibco, Grand Island, NY, USA) containing 10% fetal bovine serum (FBS; Sigma-Aldrich). The U-87 MG human glioblastoma cell line was purchased from American Type Culture Collection (Manassas, VA, USA) and cultured in Modified Eagle’s medium (MEM; Sigma-Aldrich, St. Louis, MO, USA) containing 1% Non Essential Amino Acids (NEAA) + 1 mM Sodium Pyruvate (NaP) and 10% FBS. The GL261 murine glioma cell line was provided by the In Vivo Cellular and Molecular Imaging Lab at Vrije Universiteit, Brussels and cultured in high-glucose Dulbecco’s MEM (DMEM; Wako Pure Chemical, Osaka, Japan) containing 10% FBS. All cells were maintained at 37°C in a humidified incubator containing 5% CO2 and were washed with phosphate-buffered saline (PBS) and harvested with trypsin as necessary. LAT1 expression of these cells were confirmed in previous studies.
# (§2) Initially, the cells were seeded onto a 24-well plate (density: 1 × 10^5/well) and cultured for 2 days. […] Counts per minute (CPM) of the samples were measured by gamma counter. The protein concentrations were measured using the BCA protein assay kit (FUJIFILM Wako Pure Chemical) and a plate reader (Multiskan FC, ThermoFisher Scientific, USA). […]
# U-87MG cells = test: as above; assay type: cell-based; conditions: Homo sapiens, 20 mM BCH added 5 min before para-^211At-PA, compared to baseline, read-out: inhibition of ^211At-PA uptake by addition of BCH
# Description: as §1, §2
# GL261 cells = test: as above; assay type: cell-based, murine; conditions: Mus musculus, 20 mM BCH added 5 min before para-^211At-PA, compared to baseline, read-out: inhibition of ^211At-PA uptake by addition of BCH
# Description: as §1, §2
# [3] = biological target: T1, L-type amino acid transporter-1 (LAT1) (Homo sapiens, UniProt Q01650); test: Transport of para-^211At-PA into Xenopus oocytes expressing LAT1 (compared with LAT2); assay type: cell-based; conditions: Xenopus oocytes co-expressing 4F2hc; choline buffer; 5, 15, 45 min
# T1 construct: expressed in transfected cells; host or cells: defolliculated Xenopus oocytes injected with polyadenylated cRNA (25 ng/oocyte)
# Description: Supplementary Figure 1 lists the cDNAs of human transporters used in this study. First, cRNAs were synthesized in vitro from linearized plasmids using the mMessage mMachine Kit, polyadenylated with a Poly (A) Tailing Kit, and purified with a MEGAclear Kit (all kits: ThermoFisher Scientific, Waltham, MA, USA) according to the manufacturer’s protocols. Next, defolliculated Xenopus oocytes were injected with polyadenylated cRNA (25 ng/oocyte) to induce expression. An equimolar amount of 4F2hc cRNA was co-injected to ensure the functional expression of LAT1 and LAT2 [24–26].
# Amino acid transport was measured in the oocytes 2–4 days after cRNA injection, as previously described. Briefly, the oocytes were incubated at room temperature with 500 μL of uptake buffer (choline uptake solution: 100 mM (CH3)3N (Cl) CH2CH2OH, 2 mM KCl, 1.8 mM CaCl2.2H2O, 1 mM MgCl2, 5 mM HEPES, pH 7.5) containing ^211At-PA (approximately 10kBq/oocyte). Radioactivity was determined using a gamma counter. Nine to 11 oocytes were used for each transport measurement. Two separate experiments were performed using different batches of oocytes to confirm the reproducibility of the results.
# C6 glioma xenograft [4] = test: Planar imaging and tumor dosimetry in C6 glioma-bearing mice; assay type: in vivo, mouse
# Description: (§3) All animal experiments were performed in compliance with the guidelines of the Institute of Experimental Animal Sciences. The protocol was approved by the Animal Care and Use Committee of the Osaka University Graduate School of Medicine. Normal ICR, normal C57BL/6, and nude mice (male) were purchased from Japan SLC Inc. (Hamamatsu, Japan). All animals were housed under a 12-h light/12-hr dark cycle, and given free access to food and water. C6 glioma cells (5.0 × 10^6 cells) or GL-261 cells (1.0 × 10^7 cells) were suspended in 100 μL of culture medium and Matrigel (1:1 ratio; BD Biosciences, Franklin Lakes, NJ, USA). Tumor xenograft and allograft models were prepared via the subcutaneous injection of this C6 glioma cell suspension into each immunodeficient nude mouse (n = 12) and the GL-261 cell suspension into each immunocompetent C57BL/6 mouse (n = 12), respectively.
# (§4) Para-^211At-PA was injected into mice bearing C6 glioma xenografts (n = 9; 15 weeks old; body weight = 23.8 ± 1.2 g) and GL261 allografts (n = 7; 8 weeks old; body weight = 23.6 ± 1.2 g) at 23 and 20–21 days after implantation, respectively. […] The tumor uptake was calculated as the percent injected dose (%ID). […] The tumor sizes (mm^3) were monitored using a caliper, calculated using the following elliptical sphere model equation, and compared between the injected and control groups of mice.
# C6 glioma xenograft [5] = test: Treatment effect in C6 glioma xenograft mice; assay type: in vivo, mouse; conditions: for tumor size ratio (relative to the control): 3 weeks post-injection
# Description: as §3
# Para-^211At-PA was injected into mice bearing C6 glioma xenografts (n = 9; 15 weeks old; body weight = 23.8 ± 1.2 g) and GL261 allografts (n = 7; 8 weeks old; body weight = 23.6 ± 1.2 g) at 23 and 20–21 days after implantation, respectively. C6 glioma xenograft mice were divided into four groups according to the injected dose: 1 MBq (n = 3, 1.19 ± 0.05 MBq), 0.5 MBq (n = 3, 0.55 ± 0.02 MBq), 0.1 MBq (n = 3, 0.09 ± 0.03 MBq), and control mice without para-^211At-PA administration (n = 3). GL261 allograft mice were divided into two groups: 1 MBq (n = 7, 1.07 ± 0.07 MBq) and control (n = 5). Planar imaging was performed using a gamma camera system (E-cam, Siemens) at 30 min and 3 hr after para-^211At-PA administration. This system targeted the X-rays emitted from the daughter nuclide, ^211Po (energy window: 79 keV ± 20%) (6). Image analysis was performed using AMIDE software (ver. 1.0.4). The tumor uptake was calculated as the percent injected dose (%ID). The absorbed dose (Gy) in the tumor was estimated according to a previous report with the normalization to the tumor volume in the calculation process. The tumor sizes (mm^3) were monitored using a caliper, calculated using the following elliptical sphere model equation, and compared between the injected and control groups of mice.
# V = 4/3*π*a^2*b (V: volume of the tumor (mm^3), a: shorter radius (mm) and b: longer radius (mm))
# GL261 allograft = test: Treatment effect in GL261 allograft mice; assay type: in vivo, mouse
# Description: as §3
# as §4, with “mice. […]” for “mice.”
# [6] = test system: intracranial glioblastomas; set-up: method as in PMID 24036694; conditions: intravenous treatment; rats with intracranial glioblastomas; cited from earlier work
# thyroid gland = conditions: ^211At-astatide deastatinated from ^211At-PA; cited from earlier work
# [7] = NaI 10 mg/kg i.v. 24 and 3 hr before, 3 hr post-administration
# T1 sequence (Q01650 whole entry): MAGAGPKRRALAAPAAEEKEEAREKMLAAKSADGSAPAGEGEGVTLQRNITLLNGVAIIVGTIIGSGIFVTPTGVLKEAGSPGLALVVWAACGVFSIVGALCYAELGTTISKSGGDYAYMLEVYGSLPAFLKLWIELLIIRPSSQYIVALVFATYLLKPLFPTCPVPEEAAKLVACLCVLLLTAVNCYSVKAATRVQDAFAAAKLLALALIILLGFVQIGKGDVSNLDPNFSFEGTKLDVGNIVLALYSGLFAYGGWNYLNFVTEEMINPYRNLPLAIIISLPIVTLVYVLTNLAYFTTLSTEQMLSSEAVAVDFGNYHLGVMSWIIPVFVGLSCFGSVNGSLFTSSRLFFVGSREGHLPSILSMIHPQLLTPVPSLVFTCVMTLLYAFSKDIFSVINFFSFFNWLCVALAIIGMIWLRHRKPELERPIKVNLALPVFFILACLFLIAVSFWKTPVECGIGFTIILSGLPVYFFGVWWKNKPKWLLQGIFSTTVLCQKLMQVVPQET
# T1 sequence (P08195 102-630 partner): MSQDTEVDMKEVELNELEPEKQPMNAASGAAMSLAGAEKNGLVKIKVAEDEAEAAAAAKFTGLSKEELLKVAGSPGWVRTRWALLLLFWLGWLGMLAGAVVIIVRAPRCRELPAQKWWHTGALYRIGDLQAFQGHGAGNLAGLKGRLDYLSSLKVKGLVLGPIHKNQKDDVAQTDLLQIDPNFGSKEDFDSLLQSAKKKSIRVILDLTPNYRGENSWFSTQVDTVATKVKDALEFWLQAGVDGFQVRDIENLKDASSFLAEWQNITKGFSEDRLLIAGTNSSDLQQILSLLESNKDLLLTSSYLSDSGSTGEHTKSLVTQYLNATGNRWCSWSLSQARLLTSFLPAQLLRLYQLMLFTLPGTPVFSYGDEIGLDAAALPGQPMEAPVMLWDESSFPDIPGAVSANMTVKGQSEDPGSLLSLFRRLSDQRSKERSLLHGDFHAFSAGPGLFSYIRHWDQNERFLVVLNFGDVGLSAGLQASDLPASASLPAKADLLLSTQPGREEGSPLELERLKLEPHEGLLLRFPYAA
smiles,measurement,setting,value
Cn1nnc2c(C(N)=O)ncn2c1=O [temozolomide],5-year overall survival rate,glioblastoma,9.8%
N[C@@H](Cc1cccc([211At])c1)C(=O)O [meta-^211At-PA],stability in vials,[1],remained stable
same,residence time in major organs (meta- versus para-),[2],comparable results
"NC1(C(=O)O)CC2CCC1C2 (stereo not drawn) [BCH, 2-aminobicyclo-(2,2,1)-heptane-2-carboxylic acid]",inhibition at 20000 µM,C6 glioma cells,12.2 ± 0.8%
same,inhibition at 20000 µM,U-87MG cells,27.6 ± 1.1%
same,inhibition at 20000 µM,GL261 cells,12.6 ± 2%
"N[C@@H](Cc1ccc([211At])cc1)C(=O)O [para-^211At-PA, ^211At-para-astato-L-PA]",transport into oocytes by LAT1 compared with LAT2,[3],Significantly greater transport
same,stability in vials,[1],remained stable
same,accumulation in the heart and spleen with iodine blocking,[2]; [7],increased accumulation
same,decrease in accumulation in the thyroid by iodine blocking,[2]; [7],81%
same,residence time in major organs (meta- versus para-),[2],comparable results
same,tumor uptake (planar imaging),C6 glioma xenograft [4]; 30 min post-injection,3.7 ± 0.8 %ID
same,tumor uptake (planar imaging),C6 glioma xenograft [4]; 3 hr post-injection,1.5 ± 0.2 %ID
same,tumor size ratio (relative to the control),C6 glioma xenograft [5]; 0.1 MBq,0.60
same,tumor size ratio (relative to the control),C6 glioma xenograft [5]; 0.5 MBq,0.40
same,tumor size ratio (relative to the control),C6 glioma xenograft [5]; 1 MBq,0.25
same,changes in body weights versus control mice,C6 glioma xenograft [5]; C6 glioma xenograft model,No significant differences
same,relative tumor size,"GL261 allograft; 1 MBq, day 32",0.24
same,changes in body weights versus control mice,GL261 allograft; GL261 allograft model,No significant differences
same,health conditions and survival durations,[6],improved the health conditions and enhanced the survival durations
[211AtH] [^211At-astatide],reduction of thyroid uptake following pre-administration of iodine,thyroid gland,80%

# From publication PMC7170498, “Targeted alpha therapy using astatine (^211At)-labeled phenylalanine: A preclinical study in glioma bearing mice” (Oncotarget, 2020)
